≈ marks a conversion by molar mass, not a printed value. Where “and” joins values, the source holds several entries; their conditions need not be identical. Equal values may be shown once. Read-outs that look alike come from different tables or passages of the source.
Legend:
L1210 (murine leukemia) = experiment: Disk diffusion assay, zone of inhibition, L1210; format: cell-based; conditions: 1 mg/mL
Protocol: (§1) A disk diffusion assay was performed to define the differential cell killing ability of 15-O-(3′-hydroxy-3′-isopropyl-4′-methylpentanoyl)bruceolide. Seven cell types were assayed: L1210 (ATCC CCL-219) (murine leukemia), CCRF-CEM (ATCC CCL-119) (human leukemia), Colon 38 (murine colon adenocarcinoma), HCT116 (ATCC CCL-247) (human colorectal carcinoma), H125 (human lung carcinoma). The murine and human granulocyte/macrophage progenitor cell line (CFU-GM), served as controls.
(§2) Colon 38 cells (about 1 gram) were cut into small fragments in 15 mL of Hank's Balanced Salt Solution (HBSS) over a 100-mesh sieve and gently forced through by the scissors with HBSS constantly perfusing the sieve. The resulting material was then drawn into and out of a 5 mL syringe without a needle to further disperse the cell clumps. The cell solution was diluted and plated in 0.3% agarose in DMEM plus 10% heat-inactivated Bovine Calf Serum (BCS). For plating of all of the cell types (except controls), the 60 mm plates were first prepared with a hard agar bottom layer (0.6% agar in RPMI-1640 plus 15% BCS).
(§3) A 15 μl sample of each compound was dropped onto a 6.5 mm disk (Baxter filter disks). The disks were allowed to dry overnight and then placed close to the edge of a petri dish. Depending upon the cell type, the dishes were incubated for 7 to 10 days, and examined by an inverted stereo-microscope (10×) for measurement of the zone of inhibition. The zone of inhibition was measured from the edge of the filter disk to the beginning of normal-sized colony formation. The diameter of the filter disk, 6.5 mm, was arbitrarily taken as a zone of 200 units. Compounds that were selective for killing solid tumors, as compared to leukemia or normal cells (“solid tumor selective”) were defined as those compounds which produced a difference in zones between solid tumor cells and either normal or leukemia cells of at least 250 units. The results of this analysis are set forth in Table 4, which illustrates the relative diameters of the zones of inhibition by various drugs on the growth of the respective cell types at various drug dilutions.

[1] = test system: CCRF-CEM (human leukemia); experiment: Disk diffusion assay, zone of inhibition, CCRF-CEM; format: cell-based; conditions: 1 mg/mL, dilution 1/100
Protocol: as §1, §2, §3

[2] = test system: H125 (human lung carcinoma); experiment: Disk diffusion assay, zone of inhibition, H125; format: cell-based; conditions: 1 mg/mL
Protocol: as §1, §2
(§4) HCT116 and H125 cells were maintained in cell culture, and were removed from culture by a trypsin-collagenase-DNAase cocktail. The plating efficiencies of each cell type was sufficiently high that 30,000 cells in 3 mL produced the desired number of colonies (i.e., over 10,000 per plate) in 60 mm plates. This soft agar top layer (0.3% with the serum and media as above) plus the titrated tumor cells were poured into the plates and allowed to solidify.
as §3

[3] = test system: HCT116 (human colorectal carcinoma); experiment: Disk diffusion assay, zone of inhibition, HCT116; format: cell-based; conditions: 1 mg/mL
Protocol: as §1, §2, §4, §3

HCT-116 cells [4] = experiment: Clonogenic assay, HCT-116; format: cell-based, human; conditions: colonies at 7 days
Protocol: A clonogenic assay was performed using HCT-116 cells. Specifically, HCT-116 cells were seeded at 200 to 20,000 cells in 60 mm dishes. […] At either 2 hours or 24 hours following drug administration, the drug-containing media was removed, and fresh media without drug was added. In addition, one group of cells was subjected to continuous drug exposure for the entire incubation period. The dishes were incubated for 7 days (at 37° C. and 5% CO2), media was removed, and the colonies were stained with methylene blue. Colonies containing 50 cells or more were counted. The results were normalized to an untreated control. Plating efficiency for the untreated cells was about 90%. Repeat experiments also were carried out to define the cell survival range between 1 (100%) and 10^−3 (0.1%) survival. A survival rate of 10^−1 was chosen as the minimal level that would be required in vivo to achieve therapeutic efficacy against HCT-116 cells in tumor-bearing mice. The clonogenic dose response to 15-O-(3′-hydroxy-3′-isopropyl-4′-methylpentanoyl)bruceolide is illustrated in FIG. 4. The clonogenic dose response to 15-(3-isopropyl-4-methyl-2-pentenoyl)-bruceolide is illustrated in FIG. 5.

[5] = Maximum tolerated dose in mice; conditions: first stage, one mouse per dose
Protocol: Formulations containing 15-O-(3′-hydroxy-3′-isopropyl-4′-methylpentanoyl)bruceolide, 15-(3-isopropyl-4-methyl-2-pentenoyl)-bruceolide, and, for comparative purposes, bruceantin, or peninsularinone were prepared by solubilizing each compound in up to 100 mg/mL of ethanol. These solutions were diluted 1:1 with a stabilizer (Cremophor/propylene glycol). The solutions were then diluted in saline (1:10 minimum).
The maximum tolerated dose (MTD) was determined by a two-stage experiment. In the first stage, between 1 and 10 mg/mL of the formulation was prepared as described above. Next, 0.25 mL of the formulation was injected intravenously into one 20 gram mouse (0.75 mg/mouse). If the animal died within 30 days of injection, a series of subsequent 2-fold dilutions were administered to individual mice until an MTD was defined. […] The second stage of the study involved increasing the number of mice per dose to four, and retesting four dilutions that bracket the MTD from the individual mouse study. The four dilutions were the MTD, a dosage twice the MTD, a dosage ½ the MTD, and a dosage ¼ the MTD.

[6] = test system: Colon 38 (murine colon adenocarcinoma); experiment: Disk diffusion assay, zone of inhibition, Colon 38; zone differentials, potency and product; format: cell-based; set-up: key to C38ΔL1210 / C38ΔCFU: difference of zone of inhibition values, in zone units; conditions: for zone of inhibition, Colon 38: 1 mg/mL; for Sum: C38ΔL1210 plus C38ΔCFU; for C38ΔL1210 / C38ΔCFU: difference between zone of inhibition values; for C38ΔL1210: Colon38 vs L1210 leukemia; for C38ΔCFU: Colon38 vs normal cell CFU-GM; for Product: potency multiplied by zone differentials
Outline: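 Dissociated Colon 38 cells were plated in soft agar over a hard agar layer; 15 µl of compound dilution dried on a 6.5 mm disk was placed on the plate, and incubation ran 7–10 days. Inhibition zone was measured from disk edge to normal colonies, with the disk diameter = 200 units. Potency = dilution giving 500 units; the product multiplies it by the differentials against L1210 or CFU-GM.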

murine CFU-GM = experiment: Disk diffusion assay, zone of inhibition, murine CFU-GM; format: cell-based; conditions: 1 mg/mL
Protocol: as §1
(§5) For CFU-GM cells, the femoral marrow of BD2F1 mice was flushed with MEM alpha (2 mL per femur). The cells were passed through an 18 gauge needle twice and the monodispersed suspension was counted. A total of 1.5×10^6 cells were plated in 3 mL of 0.3% agar with the addition of 10% L cell conditioned media, which provided colony stimulating factor, in MEM-alpha plus 10% BCS. For human CFU-GM, the cells were obtained from Poietic Technologies, Inc. (Gaithersburg, Md.) and washed twice with PBS before being titered and added to the agar mixture. The same cell number, culture conditions, and conditioning factors used with respect to the murine CFU-GM cells were used with the human cells, except that the cultures were assessed after 10 days of incubation.
as §3

human CFU-GM = format: cell-based; conditions: 1 mg/mL
Protocol: as §1, §5, §3

HCT-116 cells [7] = experiment: HCT-116 cytotoxicity, viable cell count by trypan blue; format: cell-based, human
MES-Sar = experiment: MTT cytotoxicity assay (% kill), MES-Sar; format: cell-based, human; conditions: 1 h exposure
Protocol: (§6) The following human tumor cell lines were obtained and cultured in sextuplicate microwells at 37° C. and 5% CO2 in humidified air and in 10% FBS in Eagles MEM: SK—N—FI, SK—N-AS, LS-174T, WiDr, HuTu-80, MCF7, NCI-AR, MES-Sar, and PL-45. Cells from each cell line were separately treated with an amount of one of the compounds of Formula I, II, or III (see Table 1). Cells were exposed to each compound (0.1 μg/mL or 1.0 μg/mL) for one hour or 24 hours, rinsed with drug-free media, and incubated for an additional five days. The number of viable cells after five days was measured using an MTT (3-(4,5-dimethylthiazol-2-yl)-2,5-diphenyltetrazolium bromide) assay (see, e.g., Mosmann, J. Immunol. Methods, 65(1-2), 55-63 (1983)).
(§7) The cytotoxicity of each drug was determined and expressed as the percent of cells killed (“% kill”).

LS-174T = experiment: MTT cytotoxicity assay (% kill), LS-174T; format: cell-based, human; conditions: 1 h exposure, MTT after five days
Protocol: as §6, §7

SK-N-AS = experiment: MTT cytotoxicity assay (% kill), SK-N-AS; format: cell-based, human; conditions: MTT after five days
Protocol: as §6, §7

WiDr = experiment: MTT cytotoxicity assay (% kill), WiDr; format: cell-based, human; conditions: 1 h exposure
Protocol: as §6, §7

NCI-AR = experiment: MTT cytotoxicity assay (% kill), NCI-AR; format: cell-based, human; conditions: 1 h exposure
Protocol: as §6, §7

[8] = no dilution, 15 μl on disk, 6.5 mm = 200 units

COC(=O)[C@@]12OC[C@]34[C@H]([C@@H](O)[C@@H]1O)[C@@]1(C)CC(=O)C(O)=C(C)[C@@H]1C[C@H]3OC(=O)[C@H](OC(=O)/C=C(\C)C(C)C)[C@@H]24 [Bruceantin, bruceantin]
zone of inhibition, L1210 (L1210 (murine leukemia); dilution 1/10): 1000 units | zone of inhibition, L1210 (L1210 (murine leukemia); [8]): >1000 units | zone of inhibition, CEM [1]: 450 units | zone of inhibition, H-125 M ([2]; dilution 1/10): >1000 units | zone of inhibition, H-125 M ([2]; dilution 1/100): 600 units | zone of inhibition, H-125 M ([2]; dilution 1/1000): 100 units | zone of inhibition, H-125 M [2, 8]: >1000 units | zone of inhibition, H-116 ([3]; dilution 1/10): 1000 units | zone of inhibition, H-116 ([3]; dilution 1/100): 400 units | zone of inhibition, H-116 ([3]; dilution 1/1000): 0 units | zone of inhibition, H-116 [3, 8]: >1000 units | Concentration Required for 10^−1 Survival Fraction (HCT-116 cells [4]; HCT-116, 2 Hour Exposure): >10 μg/mL | Concentration Required for 10^−1 Survival Fraction (HCT-116 cells [4]; HCT-116, 24 Hour Exposure): >10 μg/mL | Concentration Required for 10^−1 Survival Fraction (HCT-116 cells [4]; HCT-116, Continuous Exposure): 2 × 10^−3 μg/mL | maximum tolerated dose, Dose - 1 Mouse ([5]; intravenous): 0.1 mg/mouse | MTD ([5]; mouse, in vivo, iv, maximum tolerated dose, Dose - 1 Mouse): 5.4 mg/kg | zone of inhibition, Colon 38 ([6]; dilution 1/10): >1000 units | zone of inhibition, Colon 38 ([6]; dilution 1/100): 600 units and 1000 units | zone of inhibition, Colon 38 ([6]; dilution 1/1000): 600 units and 450 units | zone of inhibition, Colon 38 [6, 8]: >1000 units | Sum [6]: 1050 | C38ΔL1210 [6]: 500 | C38ΔCFU [6]: 550 | Product [6]: 6300 | zone of inhibition, murine CFU-GM (murine CFU-GM; dilution 1/10): 550 units | zone of inhibition, murine CFU-GM (murine CFU-GM; dilution 1/100): 150 units and 200 units | zone of inhibition, murine CFU-GM (murine CFU-GM; dilution 1/1000): 0 units | zone of inhibition, human CFU-GM (human CFU-GM; dilution 1/10): >1000 units | zone of inhibition, human CFU-GM (human CFU-GM; dilution 1/100): 650 units | IC90/IC50 (HCT-116 cells [7]; HCT-116): 6,700 | IC50 (HCT-116 cells [7]; Homo sapiens, 72 h, HCT-116, 3 days with compound, viable cells, by interpolation, read-out: IC50): 0.0015 µg/mL (≈ 0.00273 µM) | IC90 (HCT-116 cells [7]; Homo sapiens, 72 h, HCT-116, 3 days with compound, viable cells, by interpolation, read-out: IC90): 10 µg/mL (≈ 18.2 µM)

CCC(O)(CC(=O)OC1C(=O)OC2CC3C(C)=C(O)C(=O)CC3(C)C3C(O)C(O)C4(C(=O)OC)OCC23C14)C(C)C (mixture of isomers) [(+/−)-15-O-(3′-ethyl-3′-hydroxy-4′-methyl)-bruceolide]
% kill, MES Sar (MES-Sar; 0.1 μg/mL): 0% | % kill, MES Sar (MES-Sar; 1.0 μg/mL): 0% | % Kill, LS-174T (LS-174T; 0.1 μg/mL): 0% | % Kill, LS-174T (LS-174T; 1.0 μg/mL): 0% | % Kill, SK-N-AS (SK-N-AS; 0.1 μg/mL, 1 h exposure): 0% | % Kill, SK-N-AS (SK-N-AS; 0.1 μg/mL, 24 h exposure): 0% | % Kill, SK-N-AS (SK-N-AS; 1.0 μg/mL, 1 h exposure): 0% | % Kill, SK-N-AS (SK-N-AS; 1.0 μg/mL, 24 h exposure): 0% | % kill, WiDr (WiDr; 0.1 μg/mL): 0% | % kill, WiDr (WiDr; 1.0 μg/mL): 0% | Sum [6]: 1150 | C38ΔL1210 [6]: 600 | C38ΔCFU [6]: 550 | Product [6]: 3450 | % kill, NCI-AR (NCI-AR; 0.1 μg/mL): 0% | % kill, NCI-AR (NCI-AR; 1.0 μg/mL): 0%

From US20060281807A1, “Quassinoid compositions for the treatment of cancer and other proliferative diseases” (Tapestry Pharmaceuticals, Inc., priority 2005, published 2006)
